Results published in PubChem BioAssay AID624369 (Broad Institute, 2012).
Inconclusive results are not listed. Activity calls are given as the source filed them.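 Rule for the calls: active = fitted curve crosses a set inhibition level at a dose up to twice the top tested dose; inconclusive = flat curve with moderate inhibition, or an unreliable curve fit; inactive = the rest, including signal rising instead of falling.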

Columns and labels:
[1] = tested on: HEK293 LMP1 TES2 NF-kB luciferase reporter, 16 h; experiment: inhibitors of TNFa-stimulated NF-kB luciferase reporter, dose response, selectivity assay for EBV LMP1 NF-kB inhibitor project, HEK293 LMP1 reporter cells, dry powder, set 2 (AID 624369)
[2] = as above; conditions: HEK293 LMP1 TES2 NF-kB luciferase reporter, 16 h

Molecule `CN1C(=O)c2cc(NC(=O)Cc3cccs3)ccc2OC[C@@H]2O[C@H](CC(=O)NCc3ccc(-c4ccccc4)cc3)CC[C@H]21` has an AC35 [1] of 33.6 µM.
Work on `N#C[C@H]1[C@@H](c2ccc(-c3cccnc3)cc2)[C@@H](CO)N1C(=O)Nc1ccc(F)cc1` yielded an AC35 [1] of 16.9 µM.
With `CN1C(=O)c2cc(NC(=O)c3ccc(C(F)(F)F)cc3)ccc2OC[C@@H]2O[C@@H](CC(=O)NC3Cc4ccccc4C3)CC[C@H]21` the AC35 [1] was 25.7 µM.
With `Cc1ccc(S(=O)(=O)N(C)C[C@H]2Oc3cc(C#Cc4ccncc4)ccc3S(=O)(=O)N([C@@H](C)CO)C[C@H]2C)cc1` the AC35 [1] was 16.4 µM.
`CC(C)(C)[S@@](=O)N1Cc2cc(C(=O)NCc3ccccc3F)nc(-c3cccc(-c4ccncc4)c3)c2[C@H]1CCO` showed an AC35 [1] of 9.63 µM.
`CC(C)NC(=O)N1Cc2cc(C(=O)NC3Cc4ccccc4C3)nc(-c3cccc(-c4cccnc4)c3)c2[C@H]1CCO` showed an AC35 [1] of 29.1 µM.
`COc1ccccc1C#Cc1cnc2c(c1)C(=O)N([C@H](C)CO)C[C@H](C)[C@@H](CN(C)C(=O)c1ccc3c(c1)OCO3)O2` showed an AC35 [1] of 34.3 µM.
Work on `COc1cccc(-c2cccc(-c3nc(C(=O)NCC(F)(F)F)cc4c3[C@H](CCO)N([S@@](=O)C(C)(C)C)C4)c2)c1` yielded an AC35 [1] of 5.24 µM.
`CC(C)(C)[S@@](=O)N1Cc2cc(C(=O)NCCc3ccncc3)nc(-c3cccc(-c4cccnc4)c3)c2[C@H]1CCO` gave an AC35 [1] of 17.7 µM.
`COc1ccccc1C#Cc1ccc([C@H]2[C@H](C#N)N(C(=O)C3CC3)[C@H]2CO)cc1` gave an AC35 [1] of 27 µM.
Work on `COc1ccccc1C#Cc1cnc2c(c1)C(=O)N([C@@H](C)CO)C[C@H](C)[C@@H](CN(C)C(=O)c1ccc3c(c1)OCO3)O2` yielded an AC35 [1] of 27.9 µM.
With `Cc1noc(C)c1S(=O)(=O)Nc1ccc2c(c1)C(=O)N([C@@H](C)CO)C[C@H](C)[C@H](CN(C)Cc1ccc(C(F)(F)F)cc1)OCCCC[C@@H](C)O2` the activity change, negative = inhibition ([2]; at 30 µM (top of the series)) was 83.8% (inactive).
For `O=C(C[C@H]1C[C@H]2c3cc(NS(=O)(=O)c4ccc(F)cc4)ccc3O[C@H]2[C@H](CO)O1)NCc1ccc(Oc2ccccc2)cc1`, the AC35 [1] was 9.13 µM.
For `C[C@H](NC(=O)C[C@@H]1C=C[C@@H](NC(=O)Cc2ccccn2)[C@H](CO)O1)c1ccccc1`, the activity change, negative = inhibition ([2]; at 35 µM (top of the series)) was -3.22% (inactive).
With `CS(=O)(=O)Nc1ccc2c(c1)[C@@H]1C[C@H](CC(=O)NCC3CC3)O[C@H](CO)[C@@H]1O2` the activity change, negative = inhibition ([2]; at 35 µM (top of the series)) was 6.19% (inactive).
With `CC(C)NC(=O)N1Cc2cc(C(=O)NC3Cc4ccccc4C3)nc(-c3cccc(-c4cccnc4)c3)c2[C@@H]1CCO` the AC35 [1] was 18.5 µM.
In the case of `O=C(C[C@@H]1C[C@H]2c3cc(NS(=O)(=O)c4ccc(F)cc4)ccc3O[C@H]2[C@@H](CO)O1)NC1CCCCC1`, the activity change, negative = inhibition ([2]; at 35 µM (top of the series)) is reported as -3.73% (inactive).
In the case of `O=C(Cc1ccccn1)NCC[C@@H]1CC[C@@H](NC(=O)Nc2ccc(Cl)cc2)[C@@H](CO)O1`, the activity change, negative = inhibition ([2]; at 35 µM (top of the series)) is reported as 2.08% (inactive).
`N#C[C@H]1N[C@H](CO)[C@H]1c1ccc(C#Cc2ccccc2F)cc1` showed an AC35 [1] of under 0.26 µM.
Work on `CC(C)(C)[S@](=O)N1Cc2cc(C(=O)NCC(F)(F)F)nc(-c3cccc(-c4cccc(F)c4)c3)c2[C@@H]1CCO` yielded an AC35 [1] of 8.65 µM.
In the case of `C[C@@H](NC(=O)C[C@@H]1C=C[C@@H](NC(=O)Cc2ccccn2)[C@H](CO)O1)c1ccccc1`, the activity change, negative = inhibition ([2]; at 35 µM (top of the series)) is reported as -0.205% (inactive).
For `C[C@H]1CN([C@@H](C)CO)C(=O)Cc2cc(NC(=O)Cc3ccccc3)ccc2O[C@H]1CN(C)Cc1ccc(C(F)(F)F)cc1`, the activity change, negative = inhibition ([2]; at 35 µM (top of the series)) was 63.2% (inactive).
Work on `COc1ccccc1C#Cc1ccc2c(c1)O[C@H](CN(C)Cc1cccnc1)[C@@H](C)CN([C@@H](C)CO)S2(=O)=O` yielded an AC35 [1] of 26.6 µM.
With `C[C@@H](NC(=O)C[C@@H]1C=C[C@H](NC(=O)Cc2ccccn2)[C@H](CO)O1)c1ccccc1` the activity change, negative = inhibition ([2]; at 35 µM (top of the series)) was -2.15% (inactive).
For `O=C(C[C@@H]1C[C@@H]2c3cc(NC(=O)c4cccnc4)ccc3O[C@@H]2[C@H](CO)O1)NCC(F)(F)F`, the activity change, negative = inhibition ([2]; at 35 µM (top of the series)) was -2.45% (inactive).
Molecule `C[C@H]1CN([C@@H](C)CO)S(=O)(=O)c2ccc(C#Cc3ccncc3)cc2O[C@H]1CN(C)C(=O)Nc1ccc2c(c1)OCO2` has an AC35 [1] of 15.3 µM.
`O=C(C[C@@H]1C[C@H]2c3cc(NS(=O)(=O)c4ccc(F)cc4)ccc3O[C@H]2[C@@H](CO)O1)NCc1ccc(Oc2ccccc2)cc1` showed an AC35 [1] of 19.5 µM.
For `C[C@@H](NC(=O)C[C@@H]1C=C[C@@H](NC(=O)Cc2ccccn2)[C@@H](CO)O1)c1ccccc1`, the activity change, negative = inhibition ([2]; at 35 µM (top of the series)) was -4.92% (inactive).
With `C[C@H](NC(=O)C[C@@H]1C=C[C@H](NC(=O)Cc2ccccn2)[C@H](CO)O1)c1ccccc1` the activity change, negative = inhibition ([2]; at 30 µM (top of the series)) was -0.606% (inactive).
With `C[C@H](NC(=O)C[C@H]1C=C[C@H](NC(=O)Cc2ccccn2)[C@@H](CO)O1)c1ccccc1` the activity change, negative = inhibition ([2]; at 35 µM (top of the series)) was -2.25% (inactive).
For `N#C[C@@H]1[C@H](c2ccc(C#Cc3ccccc3F)cc2)[C@@H](CO)N1C(=O)c1cccnc1`, the AC35 [1] was 2.04 µM.
With `O=C(Cc1ccccn1)NCC[C@H]1CC[C@@H](NC(=O)Nc2ccc(Cl)cc2)[C@H](CO)O1` the activity change, negative = inhibition ([2]; at 35 µM (top of the series)) was -8.81% (inactive).
